The source of these data is US6716833B2, “Acetylenic α-amino acid-based sulfonamide hydroxamic acid tace inhibitors” (priority 1999, dated 2004).

Holding throughout (assay type): biochemical
Assay [1] has as its target TNF-α converting enzyme (TACE) (Homo sapiens, UniProt P78536). Briefly: TACE inhibition (fluorescent peptidyl substrate). Conditions: read-out: TACE IC50.
Method: Using 96-well black microtiter plates, each well receives a solution composed of 10 μL TACE (final concentration 1 μg/mL), 70 μL Tris buffer, pH 7.4 containing 10% glycerol (final concentration 10 mM), and 10 μL of test compound solution in DMSO (final concentration 1 μM, DMSO concentration <1%) and incubated for 10 minutes at room temperature.
The reaction is read (excitation 340 nm, emission 420 nm) for 10 min. and the increase in fluorescence over time is plotted as a linear line. The slope of the line is calculated and represents the reaction rate.
The linearity of the reaction rate is confirmed (r^2>0.85). The mean (x±sem) of the control rate is calculated and compared for statistical significance (p<0.05) with drug-treated rates using Dunnett's multiple comparison test.
A further assay has as its target MMP-13 (Homo sapiens, UniProt P45452). Briefly: MMP-13 inhibition (thiopeptide or fluorescent peptide substrate). Conditions: read-out: MMP-13 IC50.
A further assay deals with MMP-9 (Homo sapiens, UniProt P14780). The assay is described as follows: MMP-9 inhibition (thiopeptide or fluorescent peptide substrate). Conditions: read-out: MMP-9 IC50.
In another assay the target is T1, MMP-1 (Homo sapiens, UniProt P03956).
T1 sequence (P03956 100-469): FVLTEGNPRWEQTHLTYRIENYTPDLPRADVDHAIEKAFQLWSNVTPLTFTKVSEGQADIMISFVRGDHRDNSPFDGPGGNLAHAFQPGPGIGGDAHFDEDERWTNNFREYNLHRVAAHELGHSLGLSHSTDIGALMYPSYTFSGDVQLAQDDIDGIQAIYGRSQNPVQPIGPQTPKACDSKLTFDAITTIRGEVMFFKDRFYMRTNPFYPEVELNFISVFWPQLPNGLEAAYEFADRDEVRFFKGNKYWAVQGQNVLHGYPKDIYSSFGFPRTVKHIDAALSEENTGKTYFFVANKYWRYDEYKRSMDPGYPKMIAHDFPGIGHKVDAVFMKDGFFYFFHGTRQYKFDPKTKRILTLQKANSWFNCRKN
The assay is described as follows: MMP-1 inhibition (thiopeptide or fluorescent peptide substrate). Conditions: read-out: MMP-1 IC50.

TNF-α converting enzyme (TACE), sequence (P78536 215-824, species assumed): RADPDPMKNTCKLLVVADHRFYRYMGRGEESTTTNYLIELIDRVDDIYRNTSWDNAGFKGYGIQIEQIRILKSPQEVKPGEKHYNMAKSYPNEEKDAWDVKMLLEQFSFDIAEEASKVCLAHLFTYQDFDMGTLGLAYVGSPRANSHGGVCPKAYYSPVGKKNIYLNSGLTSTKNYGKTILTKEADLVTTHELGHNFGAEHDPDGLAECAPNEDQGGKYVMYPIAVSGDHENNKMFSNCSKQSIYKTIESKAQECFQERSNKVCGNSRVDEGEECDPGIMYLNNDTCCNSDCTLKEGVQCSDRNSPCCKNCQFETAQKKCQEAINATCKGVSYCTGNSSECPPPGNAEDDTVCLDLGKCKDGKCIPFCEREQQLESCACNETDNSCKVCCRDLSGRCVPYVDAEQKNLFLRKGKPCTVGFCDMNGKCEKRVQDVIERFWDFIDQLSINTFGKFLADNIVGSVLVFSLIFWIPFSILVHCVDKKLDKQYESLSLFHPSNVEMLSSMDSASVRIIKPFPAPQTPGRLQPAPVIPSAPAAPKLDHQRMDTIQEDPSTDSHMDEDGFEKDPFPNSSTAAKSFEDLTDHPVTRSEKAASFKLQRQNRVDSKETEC
MMP-9, sequence (P14780 94-707): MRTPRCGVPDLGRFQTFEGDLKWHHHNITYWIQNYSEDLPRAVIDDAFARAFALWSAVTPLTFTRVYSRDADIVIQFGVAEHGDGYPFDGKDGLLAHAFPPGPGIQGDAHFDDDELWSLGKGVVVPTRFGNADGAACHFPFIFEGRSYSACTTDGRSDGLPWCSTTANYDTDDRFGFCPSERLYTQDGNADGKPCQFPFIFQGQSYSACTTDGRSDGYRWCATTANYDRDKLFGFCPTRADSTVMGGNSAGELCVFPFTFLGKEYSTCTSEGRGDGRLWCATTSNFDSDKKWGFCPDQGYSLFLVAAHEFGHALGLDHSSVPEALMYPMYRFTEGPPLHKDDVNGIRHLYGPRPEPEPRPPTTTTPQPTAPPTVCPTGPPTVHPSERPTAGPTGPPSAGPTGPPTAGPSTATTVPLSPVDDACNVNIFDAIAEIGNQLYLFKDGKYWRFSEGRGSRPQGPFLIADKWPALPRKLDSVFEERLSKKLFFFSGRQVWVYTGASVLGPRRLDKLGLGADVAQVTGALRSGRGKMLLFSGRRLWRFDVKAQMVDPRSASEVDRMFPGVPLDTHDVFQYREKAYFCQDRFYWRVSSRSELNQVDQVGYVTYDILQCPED
Method for MMP-9: The enzyme activity is measured by the rate of the color increase. The thiopeptide substrate is made up fresh as a 20 mM stock in 100% DMSO and the DTNB is dissolved in 100% DMSO as a 100 mM stock and stored in the dark at room temperature. Both the substrate and DTNB are diluted together to 1 mM with substrate buffer (50 mM HEPES pH 7.5, 5 mM CaCl2) before use. The stock of enzyme is diluted with buffer (50 mM HEPES, pH 7.5, 5 mM CaCl2, 0.02% Brij) to the desired final concentration.
Alternatively, a fluorescent peptide substrate is used. In this test procedure, the peptide substrate contains a fluorescent group and a quenching group. Upon cleavage of the substrate by an MMP, the fluorescence that is generated is quantitated on the fluorescence plate reader. The assay is run in HCBC assay buffer (50 mM HEPES, pH 7.0, 5 mM Ca^+2, 0.02% Brij, 0.5% Cysteine), with human recombinant MMP-1, MMP-9, or MMP-13. […] For the assay, substrate and enzymes are diluted in HCBC buffer to the desired concentrations. Compounds are added to the 96 well plate containing enzyme and the reaction is started by the addition of substrate.
For either the thiopeptide or fluorescent peptide test procedures, the slope of the line is calculated and represents the reaction rate. The linearity of the reaction rate is confirmed (r^2>0.85). The mean (x±sem) of the control rate is calculated and compared for statistical significance (p<0.05) with drug-treated rates using Dunnett's multiple comparison test.

Regarding `CC#CCOc1ccc(S(=O)(=O)N(C)C(C(=O)NO)c2ccc(OCCN3CCCC3=O)cc2)cc1` (stereo not shown) [Example 184, 2-[{[4-(2-Butynyloxy)phenyl]sulfonyl}(methyl)amino]-N-hydroxy-2-{4-[2-(2-oxo-1-pyrrolidinyl)ethoxy]phenyl}acetamide], the IC50 in assay [1] was 35 nM; at MMP-13, 11 nM; at MMP-9 it was 55 nM; on MMP-1, 434 nM.

With `CC#CCOc1ccc(S(=O)(=O)N(C)C(C(=O)NO)c2ccc(OCCN3CCN(C(=O)OC(C)(C)C)CC3)cc2)cc1` (stereo not shown) [Example 185, tert-Butyl 4-(2-{4-[1-[{[4-(2-Butynyloxy)phenyl]sulfonyl}(methyl)amino]-2-(hydroxyamino)-2-oxoethyl]phenoxy}ethyl)-1-piperazinecarboxylate], the IC50 in assay [1] is 309 nM; on MMP-13 it was 27 nM; at MMP-9, 53 nM; at MMP-1 it was 839 nM.

As to `CC#CCOc1ccc(S(=O)(=O)N(C)C(C(=O)NO)c2ccc(OCCN3CCNCC3)cc2)cc1` (stereo not shown) [Example 186, 2-[{[4-(2-butynyloxy)phenyl]sulfonyl}(methyl)amino]-N-hydroxy-2-{4-[2-(1-piperazinyl)ethoxy]phenyl}acetamide], the IC50 is 31 nM in assay [1], 21 nM on MMP-13, 32 nM on MMP-9 and 568 nM at MMP-1.

In the case of `CC#CCOc1ccc(S(=O)(=O)N(C)C(C(=O)NO)c2ccc(OCCCNC(=O)OC(C)(C)C)cc2)cc1` (stereo not shown) [Example 187, tert-Butyl 3-{4-[1-[{[4-(2-Butynyloxy)phenyl]sulfonyl}(methyl)amino]-2-(hydroxyamino)-2-oxoethyl]phenoxy}propylcarbamate], the IC50 in assay [1] stood at 199 nM; at MMP-13 it was 13 nM; at MMP-9 it was 46 nM; on MMP-1, 910 nM.

In the case of `CC#CCOc1ccc(S(=O)(=O)N(C)C(C(=O)NO)c2ccc(OCCCN)cc2)cc1` (stereo not shown) [Example 188, 2-[4-(3-Aminopropoxy)phenyl]-2-[{[4-(2-butynyloxy)phenyl]sulfonyl}(methyl)amino]-N-hydroxyacetamide], the IC50 in assay [1] came out at 25 nM; on MMP-13, 41 nM; on MMP-9, 48 nM; on MMP-1 it was 469 nM.

`CC#CCOc1ccc(S(=O)(=O)N(C)[C@@H](C(=O)NO)c2ccc(O[C@H]3CCN(C(=O)OC(C)(C)C)C3)cc2)cc1` [Example 189, tert-Butyl(3S)-3-{4-[(1R)-1-[{[4-(2-butynyloxy)phenyl]sulfonyl}(methyl)amino]-2-(hydroxyamino)-2-oxoethyl]phenoxy}-1-pyrrolidinecarboxylate]: the concentration for half-maximal inhibition (IC50) in assay [1] is 231 nM; on MMP-13 it was 120 nM; on MMP-9 it was 297 nM; at MMP-1, 2440 nM.

Take `CC#CCOc1ccc(S(=O)(=O)N(C)[C@@H](C(=O)NO)c2ccc(O[C@H]3CCNC3)cc2)cc1` [Example 190, (2R)-2-[{[4-(2-Butynyloxy)phenyl]sulfonyl}(methyl)amino]-N-hydroxy-2-{4-[(3S)-pyrrolidinyloxy]phenyl}ethanamide]: the IC50 in assay [1] is 32 nM; at MMP-13, 29 nM; on MMP-9, 37 nM; on MMP-1, 527 nM.

In the case of `CC#CCOc1ccc(S(=O)(=O)N[C@@H](C(=O)NO)c2ccc(OCCNC(=O)OC(C)(C)C)cc2)cc1` [Example 199, tert-Butyl 2-{4-[(1R)-1-({[4-(2-Butynyloxy)phenyl]sulfonyl}amino)-2-(hydroxyamino)-2-oxoethyl]phenoxy}ethylcarbamate], the IC50 in assay [1] is 42 nM; at MMP-13, 139 nM; at MMP-9 it was 862 nM; on MMP-1 it was roughly 10000 nM.

Regarding `CC#CCOc1ccc(S(=O)(=O)N[C@@H](C(=O)NO)c2ccc(OCCN)cc2)cc1` [Example 200, (2R)-2-[4-(2-Aminoethoxy)phenyl]-2-({[4-(2-butynyloxy)phenyl]sulfonyl}amino)-N-hydroxyethanamide], the IC50 in assay [1] was 15 nM; at MMP-13 it was 176 nM; on MMP-9, 518 nM; at MMP-1, roughly 10000 nM.

Turning to `CC#CCOc1ccc(S(=O)(=O)N[C@@H](C(=O)NO)c2ccc(OCCNC(C)=O)cc2)cc1` [Example 201, (2R)-2-{4-[2-(Acetylamino)ethoxy]phenyl}-2-({[4-(2-butynyloxy)phenyl]sulfonyl}amino)-N-hydroxyethanamide], the concentration for half-maximal inhibition (IC50) is 9.4 nM in assay [1], 73 nM on MMP-13, 569 nM on MMP-9 and roughly 10000 nM on MMP-1.

For `CC#CCOc1ccc(S(=O)(=O)N(C)C(C(=O)NO)c2ccccc2)cc1` (stereo not shown) [Example 211, 2-[{[4-(2-Butynyloxy)phenyl]sulfonyl}(methyl)amino]-N-hydroxy-2-phenylacetamide], the IC50 in assay [1] worked out at 8 nM; on MMP-13, 20 nM; at MMP-9 it was 43 nM; at MMP-1, 496 nM.

With `CC#CCOc1ccc(S(=O)(=O)N2CCN(C(=O)N3CCOCC3)CC2C(=O)NO)cc1` (stereo not shown) [Example 215, 1-(4-but-2-ynyloxy-Benzenesulfonyl)-4-(morpholine-4-carbonyl)-piperazine-2-carboxylic Acid Hydroxyamide], the IC50 in assay [1] is 35 nM; at MMP-13 it was 39 nM; at MMP-9, 60 nM; at MMP-1, 695 nM.

For the compound `CC#CCOc1ccc(S(=O)(=O)N2CCN(C(=O)N3CCCC3)CC2C(=O)NO)cc1` (stereo not shown) [Example 217, 1-(4-but-2-ynyloxy-Benzenesulfonyl)-4-(pyrrolidine-1-carbonyl)-piperazine-2-carboxylic Acid Hydroxyamide], the IC50 in assay [1] was determined as 28 nM; on MMP-13, 83 nM; on MMP-9 it was 209 nM; at MMP-1 it was 1250 nM.

As for `CC#CCOc1ccc(S(=O)(=O)N2CCN(C(=O)N(C(C)C)C(C)C)CC2C(=O)NO)cc1` (stereo not shown) [Example 218, 4-(4-but-2-ynyloxy-Benzenesulfonyl)-piperazine-1,3-dicarboxylic Acid 1-Diisopropylamide 3-Hydroxyamide], the IC50 was determined as 49 nM in assay [1], 213 nM on MMP-13, 822 nM at MMP-9 and 3290 nM on MMP-1.

Regarding `CC#CCOc1ccc(S(=O)(=O)N2CCN(C(=O)N(C)c3ccccc3)CC2C(=O)NO)cc1` (stereo not shown) [Example 220, 4-(4-but-2-ynyloxy-Benzenesulfonyl)-piperazine-1,3-dicarboxylic Acid 3-Hydroxyamide 1-(Methyl-phenyl-amide)], the IC50 in assay [1] is 20 nM; on MMP-13, 62 nM; at MMP-9, 561 nM; at MMP-1, 1640 nM.

With `CC#CCOc1ccc(S(=O)(=O)N2CCN(C(=O)Nc3ccc(OC)cc3)CC2C(=O)NO)cc1` (stereo not shown) [Example 221, 4-{[4-(2-Butynyloxy)phenyl]sulfonyl}-N-3-hydroxy-N-1-(4-methoxyphenyl)-1,3-piperazinedicarboxamide], the IC50 in assay [1] turned out to be 69 nM; at MMP-13 it was 182 nM; at MMP-9, 576 nM; at MMP-1, 1510 nM.

Turning to `CC#CCOc1ccc(S(=O)(=O)N2CCN(C(=O)Nc3ccc(F)cc3)CC2C(=O)NO)cc1` (stereo not shown) [Example 222, 4-{[4-(2-Butynyloxy)phenyl]sulfonyl}-N-1-(4-fluorophenyl)-N-3-hydroxy-1,3-piperazinedicarboxamide], the IC50 is 30 nM in assay [1], 75 nM on MMP-13, 173 nM at MMP-9 and 941 nM on MMP-1.

Regarding `CC#CCOc1ccc(S(=O)(=O)N2CCN(C(=O)Nc3cc(Cl)cc(Cl)c3)CC2C(=O)NO)cc1` (stereo not shown) [Example 223, 4-{[4-(2-Butynyloxy)phenyl]sulfonyl}-N-1-(3,5-dichlorophenyl)-N-3-hydroxy-1,3-piperazinedicarboxamide], the IC50 turned out to be 83 nM in assay [1], 153 nM on MMP-13, 642 nM on MMP-9 and 1720 nM on MMP-1.

Consider `CC#CCOc1ccc(S(=O)(=O)N2CCN(C(C)=O)CC2C(=O)NO)cc1` (stereo not shown) [Example 224, 4-Acetyl-1-(4-but-2-ynyloxy-benzenesulfonyl)-piperazine-2-carboxylic Acid Hydroxyamide], for which the IC50 is 13 nM in assay [1], 22 nM on MMP-13, 88 nM at MMP-9 and 357 nM on MMP-1.

`CC#CCOc1ccc(S(=O)(=O)N2CCN(C(=O)CC)CC2C(=O)NO)cc1` (stereo not shown) [Example 225, 1-(4-but-2-ynyloxy-Benzenesulfonyl)-4-propionyl-piperazine-2-carboxylic Acid Hydroxyamide]: the IC50 turned out to be 17 nM in assay [1], 230 nM on MMP-13, 727 nM at MMP-9 and 1000 nM at MMP-1.

Consider `CC#CCOc1ccc(S(=O)(=O)N2CCN(C(=O)CNC(=O)OC(C)(C)C)CC2C(=O)NO)cc1` (stereo not shown) [Example 229, {2-[4-(4-but-2-ynyloxy-Benzenesulfonyl)-3-hydroxycarbamoyl-piperazin-1-yl]-2-oxo-ethyl}-carbamic Acid tert-Butyl Ester], for which the IC50 in assay [1] is 64 nM; on MMP-13, 85 nM; on MMP-9, 322 nM; at MMP-1, 1010 nM.

As for `CC#CCOc1ccc(S(=O)(=O)N2CCN(C(=O)CN)CC2C(=O)NO)cc1` (stereo not shown) [Example 230, 4-Aminoacetyl-1-(4-but-2-ynyloxy-benzenesulfonyl)-piperazine-2-carboxylic Acid Hydroxyamide], the IC50 amounted to 127 nM in assay [1], 410 nM at MMP-13, 1230 nM at MMP-9 and 8500 nM at MMP-1.
